# Data reported in US20200079765A1, “SUBSTITUTED HETEROARYL PYRROLONES AND SALTS THEREOF AND USE THEREOF AS HERBICIDAL ACTIVE SUBSTANCES” (Bayer CropScience Aktiengesellschaft, priority 2016, published 2020).
# What was measured:
# Assay type in all cases: in vivo
# Abutilon theophrasti [1] = test: Post-emergence herbicidal action (Experimental Part 1, A); settings: about 3 weeks after treatment, 100% = plants have died, 0% = like control plants
# Protocol: (§1) Seeds of monocotyledonous and dicotyledonous weeds and crop plants were placed in sandy loam in plastic or wood-fiber pots, covered with soil and cultivated in a greenhouse under controlled growth conditions. 2 to 3 weeks after sowing, the test plants were treated at the one-leaf stage. The compounds of the invention, formulated in the form of wettable powders (WP) or as emulsion concentrates (EC), were then sprayed onto the green parts of the plants as aqueous suspension or emulsion with addition of 0.5% additive at a water application rate of 600 l/ha (converted). After the test plants had been kept in the greenhouse under optimum growth conditions for about 3 weeks, the activity of the preparations was rated visually in comparison to untreated controls. For example, 100% activity=the plants have died, 0% activity=like control plants. Tables A1 to A14 below show the effects of selected compounds of the general formula (I) according to Tables I.1 to I.116 on various harmful plants and an application rate corresponding to 1280 g/ha or 320 g/ha, which were obtained by the experimental procedure mentioned above.
# Alopecurus myosuroides [2] = test: as above; settings: about 3 weeks after treatment, 100% = plants have died, 0% = like control plants
# Protocol: as §1
# Amaranthus retroflexus [3] = test: as above; settings: about 3 weeks after treatment, 100% = plants have died, 0% = like control plants
# Protocol: as §1
# Avena fatua [4] = test: as above; settings: rated visually after about 3 weeks
# Protocol: as §1
# Echinochloa crus-galli [5] = test: as above; settings: about 3 weeks after treatment, 100% = plants have died, 0% = like control plants
# Protocol: as §1
# Hordeum murinum [6] = test: as above; settings: application rate 1280 g/ha, rated visually after about 3 weeks
# Protocol: as §1
# Ipomoea purpurea [7] = test: as above; settings: application rate 1280 g/ha, rated visually after about 3 weeks
# Protocol: as §1
# Lolium rigidum [8] = test: as above; settings: application rate 1280 g/ha, rated visually after about 3 weeks
# Protocol: as §1
# Matricaria inodora [9] = test: as above; settings: rated visually after about 3 weeks
# Protocol: as §1
# Polygonum convolvulus [10] = test: as above; settings: rated visually after about 3 weeks
# Protocol: as §1
# Setaria viridis [11] = test: as above; settings: about 3 weeks after treatment, 100% = plants have died, 0% = like control plants
# Protocol: as §1
# Stellaria media [12] = test: as above; settings: rated visually after about 3 weeks
# Protocol: as §1
# Veronica persica [13] = test: as above; settings: application rate 1280 g/ha, about 3 weeks after treatment, 100% = plants have died, 0% = like control plants
# Protocol: as §1
# Viola tricolor [14] = test: as above; settings: rated visually after about 3 weeks
# Protocol: as §1
# Abutilon theophrasti [15] = test: Pre-emergence herbicidal action (Experimental Part 1, B); settings: scored visually after about 3 weeks
# From the text: (§2) Seeds of monocotyledonous and dicotyledonous weed plants and crop plants were placed in plastic or organic planting pots and covered with soil. The compounds of the invention, formulated in the form of wettable powders (WP) or as emulsion concentrates (EC), were then applied onto the surface of the covering soil as aqueous suspension or emulsion with addition of 0.5% additive at a water application rate of 600 l/ha (converted). After the treatment, the pots were placed in a greenhouse and kept under good growth conditions for the test plants. After about 3 weeks, the effect of the preparations was scored visually in comparison with untreated controls as percentages. For example, 100% activity=the plants have died, 0% activity=like control plants. Tables B1 to B14 below show the effects of selected compounds of the general formula (I) according to Tables I.1 to I.116 on various harmful plants and an application rate corresponding to 1280 g/ha or 320 g/ha, which were obtained by the experimental procedure mentioned above.
# Alopecurus myosuroides [16] = test: as above; settings: scored visually after about 3 weeks
# From the text: as §2
# Amaranthus retroflexus [17] = test: as above; settings: scored visually after about 3 weeks
# From the text: as §2
# Avena fatua [18] = test: as above; settings: scored visually after about 3 weeks
# From the text: as §2
# Echinochloa crus-galli [19] = test: as above; settings: application rate 1280 g/ha, scored visually after about 3 weeks
# From the text: as §2
# Hordeum murinum [20] = test: as above; settings: scored visually after about 3 weeks
# From the text: as §2
# Ipomoea purpurea [21] = test: as above; settings: application rate 1280 g/ha, scored visually after about 3 weeks
# From the text: as §2
# Lolium rigidum [22] = test: as above; settings: application rate 1280 g/ha, scored visually after about 3 weeks
# From the text: as §2
# Matricaria inodora [23] = test: as above; settings: scored visually after about 3 weeks
# From the text: as §2
# Polygonum convolvulus [24] = test: as above; settings: scored visually after about 3 weeks
# From the text: as §2
# Setaria viridis [25] = test: as above; settings: scored visually after about 3 weeks
# From the text: as §2
# Stellaria media [26] = test: as above; settings: scored visually after about 3 weeks
# From the text: as §2
# Veronica persica [27] = test: as above; settings: application rate 1280 g/ha, scored visually after about 3 weeks
# From the text: as §2
# Viola tricolor [28] = test: as above; settings: scored visually after about 3 weeks
# From the text: as §2
structure (smiles),measurement,setting,value
CC(=O)OC1C(C)=CC(=O)N1c1cc(C(C)(C)C)on1 (stereo not drawn) [I.3-162],herbicidal activity on Abutilon theophrasti (visual rating vs untreated controls),Abutilon theophrasti [1]; application rate 320 g/ha,100%
same,herbicidal activity on Abutilon theophrasti (visual rating vs untreated controls),Abutilon theophrasti [1]; application rate 1280 g/ha,100%
same,herbicidal activity on Alopecurus myosuroides (visual rating vs untreated controls),Alopecurus myosuroides [2]; application rate 320 g/ha,100%
same,herbicidal activity on Alopecurus myosuroides (visual rating vs untreated controls),Alopecurus myosuroides [2]; application rate 1280 g/ha,100%
same,herbicidal activity on Amaranthus retroflexus (visual rating vs untreated controls),Amaranthus retroflexus [3]; application rate 320 g/ha,90%
same,herbicidal activity on Amaranthus retroflexus (visual rating vs untreated controls),Amaranthus retroflexus [3]; application rate 1280 g/ha,100%
same,"Avena fatua, herbicidal activity",Avena fatua [4]; application rate 320 g/ha,90%
same,"Avena fatua, herbicidal activity",Avena fatua [4]; application rate 1280 g/ha,90%
same,herbicidal activity on Echinochloa crus-galli (visual rating vs untreated controls),Echinochloa crus-galli [5]; application rate 320 g/ha,90%
same,herbicidal activity on Echinochloa crus-galli (visual rating vs untreated controls),Echinochloa crus-galli [5]; application rate 1280 g/ha,100%
same,"Hordeum murinum, herbicidal activity",Hordeum murinum [6],100%
same,"Ipomoea purpurea, herbicidal activity",Ipomoea purpurea [7],90%
same,"Lolium rigidum, herbicidal activity",Lolium rigidum [8],90%
same,"Matricaria inodora, herbicidal activity",Matricaria inodora [9]; application rate 320 g/ha,100%
same,"Matricaria inodora, herbicidal activity",Matricaria inodora [9]; application rate 1280 g/ha,100%
same,"Polygonum convolvulus, herbicidal activity",Polygonum convolvulus [10]; application rate 320 g/ha,100%
same,"Polygonum convolvulus, herbicidal activity",Polygonum convolvulus [10]; application rate 1280 g/ha,100%
same,herbicidal activity on Setaria viridis (visual rating vs untreated controls),Setaria viridis [11]; application rate 320 g/ha,100%
same,herbicidal activity on Setaria viridis (visual rating vs untreated controls),Setaria viridis [11]; application rate 1280 g/ha,100%
same,"Stellaria media, herbicidal activity",Stellaria media [12]; application rate 320 g/ha,100%
same,"Stellaria media, herbicidal activity",Stellaria media [12]; application rate 1280 g/ha,100%
same,herbicidal activity on Veronica persica (visual rating vs untreated controls),Veronica persica [13],100%
same,"Viola tricolor, herbicidal activity",Viola tricolor [14]; application rate 320 g/ha,100%
same,"Viola tricolor, herbicidal activity",Viola tricolor [14]; application rate 1280 g/ha,100%
same,"Abutilon theophrasti, herbicidal activity",Abutilon theophrasti [15]; application rate 320 g/ha,100%
same,"Abutilon theophrasti, herbicidal activity",Abutilon theophrasti [15]; application rate 1280 g/ha,100%
same,"Alopecurus myosuroides, herbicidal activity",Alopecurus myosuroides [16]; application rate 320 g/ha,90%
same,"Alopecurus myosuroides, herbicidal activity",Alopecurus myosuroides [16]; application rate 1280 g/ha,90%
same,"Amaranthus retroflexus, herbicidal activity",Amaranthus retroflexus [17]; application rate 320 g/ha,100%
same,"Amaranthus retroflexus, herbicidal activity",Amaranthus retroflexus [17]; application rate 1280 g/ha,100%
same,"Avena fatua, herbicidal activity",Avena fatua [18]; application rate 320 g/ha,90%
same,"Avena fatua, herbicidal activity",Avena fatua [18]; application rate 1280 g/ha,90%
same,"Echinochloa crus-galli, herbicidal activity",Echinochloa crus-galli [19],100%
same,"Hordeum murinum, herbicidal activity",Hordeum murinum [20]; application rate 320 g/ha,90%
same,"Hordeum murinum, herbicidal activity",Hordeum murinum [20]; application rate 1280 g/ha,100%
same,"Ipomoea purpurea, herbicidal activity",Ipomoea purpurea [21],90%
same,"Lolium rigidum, herbicidal activity",Lolium rigidum [22],90%
same,"Matricaria inodora, herbicidal activity",Matricaria inodora [23]; application rate 320 g/ha,100%
same,"Matricaria inodora, herbicidal activity",Matricaria inodora [23]; application rate 1280 g/ha,100%
same,"Polygonum convolvulus, herbicidal activity",Polygonum convolvulus [24]; application rate 320 g/ha,100%
same,"Polygonum convolvulus, herbicidal activity",Polygonum convolvulus [24]; application rate 1280 g/ha,100%
same,"Setaria viridis, herbicidal activity",Setaria viridis [25]; application rate 320 g/ha,100%
same,"Setaria viridis, herbicidal activity",Setaria viridis [25]; application rate 1280 g/ha,100%
same,"Stellaria media, herbicidal activity",Stellaria media [26]; application rate 320 g/ha,90%
same,"Stellaria media, herbicidal activity",Stellaria media [26]; application rate 1280 g/ha,100%
same,"Veronica persica, herbicidal activity",Veronica persica [27],100%
same,"Viola tricolor, herbicidal activity",Viola tricolor [28]; application rate 320 g/ha,100%
same,"Viola tricolor, herbicidal activity",Viola tricolor [28]; application rate 1280 g/ha,100%
